Experiments:
[1] = Phase 1 clinical trial of TH-302 monotherapy, dose escalation; assay type: in vivo, human
Procedure: A Phase 1 clinical trial was conducted with TH-302. The starting dose was 7.5 mg/m^2 IV over 30-60 min administered once weekly for 3 weeks of a 4 week cycle. A modified accelerated titration design was used.

[2] = tested on: small cell lung cancer (SCLC); experiment: TH-302 monotherapy in patients with lung cancer (SCLC); assay type: in vivo, human
Procedure: Eight subjects with SCLC have been treated with TH-302 monotherapy at initial doses of 480 mg/m^2 to 670 mg/m^2 as part of a 3 consecutive week dosing regimen repeated every 4 weeks (this excludes one subject dosed at 60 mg/m^2 during the initial dose escalation). RECIST tumor assessments were performed initially for seven subjects. […] One of the seven subjects continued on-study for additional cycles of treatment.
In this study, a person suffering from a lung cancer (a refractory small cell lung cancer) that had metastasized to liver was treated as follows. Lyophilized TH-302 was diluted with D5W and administered to the patient at an amount of 480 mg/m^2, according to the following 4 week dosing cycle: TH-302 was administered once every week for 3 weeks, on days 1, 8, and 15, followed by a week of no TH-302 administration. The patient was administered 2 cycles (i.e. 6 doses) of TH-302, and the lung and liver cancers assessed by a computed tomography (or CT) scan. […] LDH had decreased 72%, and liver function tests had normalized.

[3] = tested on: H460 human non-small cell lung cancer; experiment: H460 ectopic xenograft, TH-302/docetaxel dosing schedules; assay type: in vivo, nude mice; conditions: single agent, TH-302 100 mg/kg ip once or Docetaxol 10 mg/kg iv once
Procedure: Anti-tumor activity was evaluated by tumor growth delay (TGD) and tumor growth inhibition (TGI). Body weight change, gross and microscopic assessment of tissue changes, and hematologic assays served for toxicity assessment. Testing in these models was conducted generally as follows. 1×10^6 (H460 human non-small cell lung cancer or HT1080 human fibrosarcoma cells) or 3×10^6 (PC-3 human prostate cancer cells) were implanted in the subcutaneous space of the right flank to obtain ectopic xenograft models. Randomization and dosing was initiated when tumors reached a certain size (100-150 mm^3). API grade of TH-302 was used in all experiments while docetaxel, gemcitabine, cisplatin, pemetrexed, and doxorubicin were purchased from commercial sources.
The H460 cells were prepared in 30% Matrigel and 70%. RPMI1640. Mice were anesthetized by isoflurane and were implanted subcutaneously with 1×10^6 cells (in 200 μl) at the flank position. We selected 110 mice bearing similar size tumors (˜100 mm^3) for the study. Mice bearing similar tumor size were randomly assigned into different groups. Treatment started on day 1 (7 days after tumor implantation) except as noted. […] Animals were observed daily and tumor measurements and body weights recorded twice weekly.

metastatic melanoma = experiment: TH-302 monotherapy in patients with metastatic melanoma; assay type: in vivo, human
Procedure: As noted, TH-302 has shown benefit in patients with metastatic melanoma. The historical response rate in first-line metastatic melanoma is about 10%, so the results of treatment with TH-302 are quite remarkable. Eleven subjects with metastatic melanoma have been treated with TH-302 monotherapy at initial doses of 575 mg/m^2 to 670 mg/m^2 as part of a 3 consecutive week dosing regimen repeated every 4 weeks. RECIST tumor assessments have been performed for eight subjects. […] Four of the eight subjects continued on-study for additional dosing cycles. Two of the three subjects with a partial response continued on-study through at least Cycle 3 and Cycle 7. The other subject discontinued with clinical deterioration associated with neurological decline from brain metastases.
A patient suffering from a primary melanoma (a skin cancer) that had metastasized to liver and lung was treated as follows. TH-302 was administered to the patient at an amount of 670 mg/m^2 using a 4 week (28 day) dosing cycle: TH-302 was administered once every week for 3 weeks, on days 1, 8, and 15, followed by a week of no TH-302 administration. The patient was administered 2 cycles of TH-302 and assessed by a CT scan.
Enrollment in the study was expanded at the MTD in patients with metastatic melanoma. TH-302 was administered intravenously over 30-60 minutes on Days 1, 8 and 15 of a 28-day cycle. Eligible patients had ECOG≦1, at least one target lesion by RECIST, and acceptable hematologic, liver, and renal function. Patients with symptomatic brain metastases were excluded unless previously treated and well controlled for at least 3 months. Nine patients with metastatic melanoma have been treated in the study. The median age was 70 (range 23-78) with 5 females and 4 males and ECOG 0/1 in 4/5 patients. […] Metastatic sites included liver in 7 patients and lung in 6 patients. All patients had received at least one prior systemic chemotherapeutic regimen. Two serious adverse events, seizures and ascites, were reported; neither was considered related to study drug. Skin adverse events were reported in 8 patients and mucosal adverse events were reported in 4 patients including one grade 3 event. Myelosuppression was not significant, with one event of grade 3/4 neutropenia and anemia and no events of grade 3/4 thrombocytopenia. Eight patients have had RECIST tumor assessments.

[4] = tested on: PC-3 human prostate cancer cells; experiment: PC-3 ectopic xenograft, TH-302/docetaxel dosing schedules; assay type: in vivo, nude mice; conditions: single agent, TH-302 150 mg/kg ip once or Docetaxol 10 mg/kg iv once
Calu6 NSCLC = experiment: Calu-6 ectopic tumor model, TH-302 with doxorubicin; assay type: in vivo, nude mice; conditions: Dox 4 mg/kg IV Q7Dx2; TH-302 50 mg/kg IP QDx5/wkx2wks; alone or combined
[5] = 480-670 mg/m^2, weekly x3 every 4 weeks, seven subjects assessed
[6] = one refractory SCLC patient, 480 mg/m^2, 2 cycles
[7] = 575-670 mg/m^2, weekly x3 every 4 weeks, eight subjects assessed
[8] = expansion at MTD, 8 patients assessed
[9] = one patient, 670 mg/m^2, 2 cycles, CT scan

For `Cn1c(COP(=O)(NCCBr)NCCBr)cnc1[N+](=O)[O-]` [TH-302, (2-bromoethyl)({[(2-bromoethyl)amino][(2-nitro-3-methylimidazol-4-yl)methoxy]phosphoryl})amine], the “Dose limiting toxicity (DLT)” value ([1]; 575 mg/m^2 weekly x3 of 4 week cycle) was “five of the six patients did not exhibit a DLT”, the “Dose limiting toxicity (DLT)” value ([1]; 670 mg/m^2 weekly x3 of 4 week cycle) was “Two of five patients” and the Dose limiting toxicity ([1]; 940 mg/m^2 once every three weeks) was “two of six subjects have had a dose limiting toxicity”. The “Patients with stable disease” value ([1]; Phase 1 monotherapy, all doses) was 16 patients, the Dose limiting toxicities ([1]; dose escalation study, monotherapy) was “mucositis with one grade 3 event involving the oral mucosa and one grade 3 event involving the gastrointestinal mucosa” and the Hematologic toxicity ([1]; monotherapy) was “mild and limited”. For the same molecule, the “Skin and mucosal toxicity” value ([1]; monotherapy) was “skin and mucosal toxicity was common at doses above 240 mg/m^2”, the MTD ([1]; once every three week dosing) was 670 mg/m^2 and the MTD ([1]; once per week for three weeks of a four week cycle) was 575 mg/m^2. The “Partial responses (RECIST)” value [2, 5] was “Two of seven subjects”, the “Stable disease (RECIST)” value [2, 5] was “three of these same seven subjects” and the “Decrease in sum of the longest diameters [SLD] of target lesions” value [2, 6] was 44%. For the same molecule, the LDH decrease [2, 6] was 72%, the “Reduction in area of cancer in lung and liver” value [2, 6] was “over 50%” and the Response ([2]; three other patients with lung cancer (one NSCLC, 2 SCLC)) was “stable disease”. For the same molecule, the “Days to 500 mm^3” value [3] was 21 days, the “Days to 1000 mm^3” value [3] was 31 days and the T/C [3] was 42.5%. For the same molecule, the “TGD500, Days (vs. vehicle)” value [3] was 8 days, the “TGD1000, Days (vs. vehicle)” value [3] was 11 days and the TGI [3] was 57.5%. The “Tn (tumor volume on Day n)” value ([3]; in mm³) was 531.74, the “Partial responses (RECIST)” value (metastatic melanoma; [7]) was “Three of the eight subjects” and the “Stable disease (RECIST)” value (metastatic melanoma; [7]) was “three of eight subjects”. For the same molecule, the RECIST partial responses (metastatic melanoma; expansion at MTD, Days 1, 8, 15 of 28-day cycle, 8 patients assessed) was 37%, the “Ongoing stable disease after 2 months of therapy” value (metastatic melanoma; [8]) was 38% and the Progressive disease (metastatic melanoma; [8]) was 25%. The Mucosal adverse events (metastatic melanoma; nine patients treated) was 4 patients, the Skin adverse events (metastatic melanoma; nine patients treated) was 8 patients and the “Decrease in SLD of target lesions” value (metastatic melanoma; [9]) was 53%. The “Reduction in area of cancer in lung and liver” value (metastatic melanoma; [9]) was “over 50%”, the “Days to 500 mm^3” value [4] was 25 days and the T/C [4] was 48.7%. For the same molecule, the “TGD500, Days (vs. vehicle)” value [4] was 9 days, the TGI [4] was 51.3% and the “Tn (tumor volume on Day n)” value ([4]; in mm³) was 559.95. For the same molecule, the “Days to 500 mm^3” value (Calu6 NSCLC) was 29 days, the “Days to 1000 mm^3” value (Calu6 NSCLC) was 39 days and the T/C (Calu6 NSCLC) was 59.2%. For the same molecule, the “TGD500, Days (vs. vehicle)” value (Calu6 NSCLC) was 11 days, the “TGD1000, Days (vs. vehicle)” value (Calu6 NSCLC) was 8 days and the TGI (Calu6 NSCLC) was 40.8%. For the same molecule, the “Tn (tumor volume on Day n)” value (Calu6 NSCLC) was 695.67.
